How the values were obtained:
Assay in all cases: Kinase inhibitor library screening, PrestoBlue cell viability, 1 or 10 μM, 72 h
[1] = system: A375-GP cells (Dabrafenib-resistant); conditions: A375 GP
[2] = system: A375-XP cells (Vemurafenib-resistant); conditions: A375 XP
IGR37 cells (parental) = conditions: IGR37 Parental
[3] = system: 501Mel-XP cells (Vemurafenib-resistant); conditions: 501Mel XP
[4] = system: 501Mel-GP cells (Dabrafenib-resistant); conditions: 501Mel GP
[5] = system: IGR37-GP cells (Dabrafenib-resistant); conditions: IGR37 GP
[6] = system: IGR37-XP cells (Vemurafenib-resistant); conditions: IGR37 XP
501Mel cells (parental) = conditions: 501Mel Parental
Method in brief: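 Single-point screen at two doses over three days. Parental and BRAF-inhibitor-resistant sublines (XP: Vemurafenib; GP: Dabrafenib) were assessed by PrestoBlue viability, reported relative to untreated cells.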

A375 cells (parental) = conditions: A375 Parental

C[C@@H](N)[C@H]1CC[C@H](C(=O)Nc2ccncc2)CC1.Cl.Cl [Y-27632 2HCl]
cell viability (kinase inhibitor library screening) ([1]; 1μΜ, in %): 97.3 | cell viability (kinase inhibitor library screening) ([1]; 10μΜ, in %): 96.3 | cell viability (kinase inhibitor library screening) ([2]; 1μΜ, in %): 103.7 | cell viability (kinase inhibitor library screening) ([2]; 10μΜ, in %): 107.2 | cell viability (kinase inhibitor library screening) (IGR37 cells (parental); 10μΜ, in %): 97.4 | cell viability (kinase inhibitor library screening) ([3]; 1μΜ, in %): 90.1 | cell viability (kinase inhibitor library screening) ([3]; 10μΜ, in %): 88.2 | cell viability (kinase inhibitor library screening) ([4]; 10μΜ, in %): 87.8 | cell viability (kinase inhibitor library screening) ([5]; 1μΜ, in %): 98.0 | cell viability (kinase inhibitor library screening) ([5]; 10μΜ, in %): 91.2 | cell viability (kinase inhibitor library screening) ([6]; 1μΜ, in %): 97.8 | cell viability (kinase inhibitor library screening) ([6]; 10μΜ, in %): 70.6 | cell viability (kinase inhibitor library screening) (501Mel cells (parental); 1μΜ, in %): 96.3 | cell viability (kinase inhibitor library screening) (A375 cells (parental); 10μΜ, in %): 91.8

Nc1ccc(C(=O)Nc2cccc(-c3nc(N4CCOCC4)c4oc5ncccc5c4n3)c2)cn1 [YM201636]
Cell viability in kinase inhibitor library screening, A375 GP, 1μΜ ([1]; 1μΜ, 72 h): 96.0 | Cell viability in kinase inhibitor library screening, A375 GP, 10μΜ ([1]; 10μΜ, 72 h): 53.2 | Cell viability in kinase inhibitor library screening, A375 XP, 1μΜ ([2]; 1μΜ, 72 h): 100.1 | Cell viability in kinase inhibitor library screening, A375 XP, 10μΜ ([2]; 10μΜ, 72 h): 52.8 | Cell viability in kinase inhibitor library screening, IGR37 Parental, 1μΜ (IGR37 cells (parental); 1μΜ, 72 h, in %): 90.0 | Cell viability in kinase inhibitor library screening, IGR37 Parental, 10μΜ (IGR37 cells (parental); 10μΜ, 72 h, in %): 53.4 | Cell viability in kinase inhibitor library screening, 501Mel XP, 1μΜ ([3]; 1μΜ, 72 h, in %): 91.0 | Cell viability in kinase inhibitor library screening, 501Mel XP, 10μΜ ([3]; 10μΜ, 72 h, in %): 17.1 | Cell viability in kinase inhibitor library screening, 501Mel GP, 10μΜ ([4]; 10μΜ, 72 h, in %): 31.8 | Cell viability in kinase inhibitor library screening, IGR37 GP, 10μΜ ([5]; 10μΜ, 72 h): 3.3% | Cell viability in kinase inhibitor library screening, IGR37 GP, 1μΜ ([5]; 1μΜ, 72 h, in %): 56.3 | Cell viability in kinase inhibitor library screening, IGR37 XP, 10μΜ ([6]; 10μΜ, 72 h): 1.2% | Cell viability in kinase inhibitor library screening, IGR37 XP, 1μΜ ([6]; 1μΜ, 72 h, in %): 35.0 | Cell viability in kinase inhibitor library screening, 501Mel Parental, 10μΜ (501Mel cells (parental); 10μΜ, 72 h, in %): 44.1 | Cell viability in kinase inhibitor library screening, A375 Parental, 10μΜ (A375 cells (parental); 10μΜ, 72 h): 56.6 | Cell viability in kinase inhibitor library screening, A375 Parental, 1μΜ (A375 cells (parental); 1μΜ, 72 h): 99.8

Cc1ccc(NC(=O)c2cccc(N(C)C)c2)cc1NC(=O)c1ccc(O)cc1 [ZM 336372]
cell viability (kinase inhibitor library screening) ([1]; 10μΜ, in %): 82.7 | cell viability (kinase inhibitor library screening) ([2]; 1μΜ, in %): 103.8 | cell viability (kinase inhibitor library screening) ([2]; 10μΜ, in %): 95.8 | cell viability (kinase inhibitor library screening) (IGR37 cells (parental); 1μΜ, in %): 102.6 | cell viability (kinase inhibitor library screening) (IGR37 cells (parental); 10μΜ, in %): 105.1 | cell viability (kinase inhibitor library screening) ([3]; 1μΜ, in %): 90.4 | cell viability (kinase inhibitor library screening) ([3]; 10μΜ, in %): 83.5 | cell viability (kinase inhibitor library screening) ([4]; 1μΜ, in %): 108.5 | cell viability (kinase inhibitor library screening) ([4]; 10μΜ, in %): 81.6 | cell viability (kinase inhibitor library screening) ([5]; 1μΜ, in %): 99.1 | cell viability (kinase inhibitor library screening) ([5]; 10μΜ, in %): 96.2 | cell viability (kinase inhibitor library screening) ([6]; 1μΜ, in %): 108.8 | cell viability (kinase inhibitor library screening) ([6]; 10μΜ, in %): 93.5 | cell viability (kinase inhibitor library screening) (501Mel cells (parental); 1μΜ, in %): 98.4 | cell viability (kinase inhibitor library screening) (501Mel cells (parental); 10μΜ, in %): 89.6 | cell viability (kinase inhibitor library screening) (A375 cells (parental); 1μΜ, in %): 103.4 | cell viability (kinase inhibitor library screening) (A375 cells (parental); 10μΜ, in %): 91.8

COc1cc2c(Nc3ccc(NC(=O)c4ccccc4)cc3)ncnc2cc1OCCCN1CCOCC1 [ZM-447439]
cell viability (kinase inhibitor library screening) ([1]; 1μΜ, 72 h): 79.5% | cell viability (kinase inhibitor library screening) ([1]; 10μΜ, 72 h): 52.0% | cell viability (kinase inhibitor library screening) ([2]; 1μΜ, 72 h): 88.7% | cell viability (kinase inhibitor library screening) ([2]; 10μΜ, 72 h): 65.2% | cell viability (kinase inhibitor library screening) (IGR37 cells (parental); 1μΜ, 72 h): 103.7% | cell viability (kinase inhibitor library screening) (IGR37 cells (parental); 10μΜ, 72 h): 54.6% | cell viability (kinase inhibitor library screening) ([3]; 1μΜ, 72 h): 90.5% | cell viability (kinase inhibitor library screening) ([3]; 10μΜ, 72 h): -0.26% | cell viability (kinase inhibitor library screening) ([4]; 1μΜ, 72 h): 104.5% | cell viability (kinase inhibitor library screening) ([4]; 10μΜ, 72 h): 2.3% | cell viability (kinase inhibitor library screening) ([5]; 1μΜ, 72 h): 96.5% | cell viability (kinase inhibitor library screening) ([5]; 10μΜ, 72 h): 69.7% | cell viability (kinase inhibitor library screening) ([6]; 1μΜ, 72 h): 95.9% | cell viability (kinase inhibitor library screening) ([6]; 10μΜ, 72 h): 24.7% | cell viability (kinase inhibitor library screening) (501Mel cells (parental); 1μΜ, 72 h): 90.8% | cell viability (kinase inhibitor library screening) (501Mel cells (parental); 10μΜ, 72 h): 7.6% | cell viability (kinase inhibitor library screening) (A375 cells (parental); 10μΜ, 72 h): 56.3% | cell viability (kinase inhibitor library screening) (A375 cells (parental); 1μΜ, 72 h): 76.7%

FC(F)c1nc2ccccc2n1-c1nc(N2CCOCC2)nc(N2CCOCC2)n1 [ZSTK474]
Cell viability in kinase inhibitor library screening, A375 GP, 1μΜ ([1]; 1μΜ, 72 h): 69.9 | Cell viability in kinase inhibitor library screening, A375 GP, 10μΜ ([1]; 10μΜ, 72 h): 13.0 | Cell viability in kinase inhibitor library screening, A375 XP, 1μΜ ([2]; 1μΜ, 72 h): 67.6 | Cell viability in kinase inhibitor library screening, A375 XP, 10μΜ ([2]; 10μΜ, 72 h): 15.9 | Cell viability in kinase inhibitor library screening, IGR37 Parental, 1μΜ (IGR37 cells (parental); 1μΜ, 72 h, in %): 77.8 | Cell viability in kinase inhibitor library screening, IGR37 Parental, 10μΜ (IGR37 cells (parental); 10μΜ, 72 h, in %): 23.8 | Cell viability in kinase inhibitor library screening, 501Mel XP, 10μΜ ([3]; 10μΜ, 72 h, in %): 2.5 | Cell viability in kinase inhibitor library screening, 501Mel GP, 1μΜ ([4]; 1μΜ, 72 h, in %): 45.9 | Cell viability in kinase inhibitor library screening, 501Mel GP, 10μΜ ([4]; 10μΜ, 72 h, in %): 9.4 | Cell viability in kinase inhibitor library screening, IGR37 GP, 10μΜ ([5]; 10μΜ, 72 h): 8.8% | Cell viability in kinase inhibitor library screening, IGR37 GP, 1μΜ ([5]; 1μΜ, 72 h, in %): 80.3 | Cell viability in kinase inhibitor library screening, IGR37 XP, 10μΜ ([6]; 10μΜ, 72 h): 4.7% | Cell viability in kinase inhibitor library screening, IGR37 XP, 1μΜ ([6]; 1μΜ, 72 h, in %): 71.7 | Cell viability in kinase inhibitor library screening, 501Mel Parental, 1μΜ (501Mel cells (parental); 1μΜ, 72 h, in %): 66.9 | Cell viability in kinase inhibitor library screening, 501Mel Parental, 10μΜ (501Mel cells (parental); 10μΜ, 72 h, in %): 8.9 | Cell viability in kinase inhibitor library screening, A375 Parental, 10μΜ (A375 cells (parental); 10μΜ, 72 h): 16.3 | Cell viability in kinase inhibitor library screening, A375 Parental, 1μΜ (A375 cells (parental); 1μΜ, 72 h): 76.3

MK-2206 dihydrochloride
cell viability (kinase inhibitor library screening) ([1]; 1μΜ, 72 h): 96.2% | cell viability (kinase inhibitor library screening) ([1]; 10μΜ, 72 h): 66.2% | cell viability (kinase inhibitor library screening) ([2]; 1μΜ, 72 h): 93.8% | cell viability (kinase inhibitor library screening) ([2]; 10μΜ, 72 h): 54.1% | cell viability (kinase inhibitor library screening) (IGR37 cells (parental); 10μΜ, 72 h): 25.6% | cell viability (kinase inhibitor library screening) ([3]; 1μΜ, 72 h): 69.2% | cell viability (kinase inhibitor library screening) ([3]; 10μΜ, 72 h): 1.7% | cell viability (kinase inhibitor library screening) ([4]; 1μΜ, 72 h): 90.7% | cell viability (kinase inhibitor library screening) ([4]; 10μΜ, 72 h): 28.3% | cell viability (kinase inhibitor library screening) ([5]; 1μΜ, 72 h): 100.0% | cell viability (kinase inhibitor library screening) ([5]; 10μΜ, 72 h): 15.9% | cell viability (kinase inhibitor library screening) ([6]; 1μΜ, 72 h): 94.6% | cell viability (kinase inhibitor library screening) ([6]; 10μΜ, 72 h): 4.2% | cell viability (kinase inhibitor library screening) (501Mel cells (parental); 1μΜ, 72 h): 98.7% | cell viability (kinase inhibitor library screening) (501Mel cells (parental); 10μΜ, 72 h): 7.6% | cell viability (kinase inhibitor library screening) (A375 cells (parental); 10μΜ, 72 h): 74.4%

Source: paper PMC6364417, “Kinase inhibitor library screening identifies synergistic drug combinations effective in sensitive and resistant melanoma cells” (Journal of Experimental & Clinical Cancer Research : CR, 2019)
